How the values were obtained:
[1] = system: S. aureus (USA300), stationary phase; assay: Time of kill for free antibiotics on non-replicating bacteria; assay type: cell-based, Staphylococcus aureus; conditions: 1×10^-6M antibiotic, overnight incubation in PBS at 37° C.
Method: Time of kill for free antibiotics on non-replicating bacteria: S. aureus (USA300) was taken from an overnight stationary phase culture, washed once in Phosphate Buffered Saline (PBS) and suspended at 1×10^7 CFU/mL in PBS with no antibiotic or with 1×10^-6M antibiotic in a 10 mL volume in 50 mL polypropylene centrifuge tubes. The bacteria were incubated at 37° C. overnight with shaking. At each time point, three 1 mL samples were removed from each culture and centrifuged to collect the bacteria. Bacteria were washed once with PBS to remove the antibiotic and the total number of surviving bacteria was determined by plating serial dilutions of the bacteria on agar plates.
MRSA was collected from a stationary phase culture and suspended in phosphate buffered saline containing no antibiotic or 1×10^-6M of rifampin or the rifamycin-derivative (Rifalog) and incubated at 37° C. At the indicated times, a sample of the culture was collected and centrifuged to remove the antibiotic and the total number of surviving bacteria was determined by plating.

[2] = system: MRSA (USA300 NRS384 strain); assay: Murine intravenous infection model (CB17.SCID mice reconstituted with IGIV); assay type: in vivo, Staphylococcus aureus; conditions: single dose 24h post infection; free antibiotic at equal molar concentration
Method: S. aureus is a common colonizer of human skin and mucosal surfaces. […] Mouse serum has no appreciable levels of anti-S aureus antibody. To determine whether endogenous anti-WTA antibodies found in normal human serum might compete for binding with the AAC, CB17.SCID mice (Charles River Laboratories, Hollister, Calif.) were reconstituted with GammaGard S/D IGIV Immune Globulin (ASD Healthcare, Brooks Ky.) using a dosing regimen optimized to achieve constant serum levels of at least 10 mg/mL of human IgG in serum. IGIV was administered with an initial intravenous dose of 30 mg per mouse followed by a second dose of 15 mg/mouse by intraperitoneal (i.p.) injection after 6 hours, and subsequent daily dosings of 15 mg per mouse by intraperitoneal injection for 3 consecutive days. These mice were equally susceptible to infection with MRSA compared to untreated controls.
Mice (n=8 for each of antibody or AAC) were infected 4 hours after the first dose of IGIV with 1×10^7 CFU of MRSA (USA300 NRS384 strain) diluted in phosphate buffered saline by intravenous injection. Infected mice were treated with 50 mg/kg of S4497 naked antibody or S4497 AAC from Table 3. […] The total number of bacteria recovered per organ was determined by plating serial dilutions of the tissue homogenate in PBS 0.05% Tween on Tryptic Soy Agar with 5% defibrinated sheep blood.

[3] = system: S. aureus (USA300) persister cells; assay: Killing of persister cells by free antibiotics; assay type: cell-based, Staphylococcus aureus; conditions: ciprofloxacin-treated cultures, second antibiotic 1 ug/ml
Method: Killing of persisters cells by free antibiotics: S. aureus (USA300) was taken from an overnight stationary phase culture, washed once in Tryptic Soy Broth (TSB) and then adjusted to a final concentration of 1×10^7 CFU/ml in a total volume of 10 mL of either TSB or TSB with ciprofloxicin (0.05 mM). Cultures were incubated with shaking at 37° C. for 6 hours and then the second antibiotic, either rifampicin (1 ug/ml) or another rifamycin-type antibiotic (1 ug/ml) was added. At the indicated times, samples were removed from each culture, washed once with PBS to remove the antibiotic and re-suspended in PBS. The total number of surviving bacteria was determined by plating serial dilutions of the bacteria on agar plates. At the final time point the remainder of each culture was collected and plated.

CO[C@H]1/C=C/O[C@@]2(C)Oc3c(C)c(O)c4c(=O)c(c5oc6cc(N7CCC(N(C)C)CC7)cc(O)c6nc-5c4c3C2=O)NC(=O)/C(C)=C\C=C\[C@H](C)[C@H](O)[C@@H](C)[C@@H](O)[C@@H](C)[C@H](OC(C)=O)[C@@H]1C [dimethylpipBOR, dimethylpiperidyl benzoxazino rifamycin]
decrease in the number of viable, but non-replicating, bacteria [1]: more than 1,000 fold
efficacy on bacterial counts in infected organs [2]: not efficacicou
effect on viability of persister cells [3]: eradication of persister cells below the limit of detection

From patent publication US20180021450A1, “ANTI-STAPHYLOCOCCUS AUREUS ANTIBODY RIFAMYCIN CONJUGATES AND USES THEREOF” (Genentech, Inc., priority 2014, published 2018)
